Columns and labels:
kochia [1] = assay: Test A preemergence; assay type: in vivo, Kochia scoparia; conditions: 0 to 100 scale (0 no effect, 100 complete control)
From the text: Seeds of plant species selected from barnyardgrass (Echinochloa crus-galli), crabgrass, large (large crabgrass, Digitaria sanguinalis), kochia (Kochia scoparia), ragweed (common ragweed, Ambrosia elatior), foxtail, giant (giant foxtail, Setaria faberii), morningglory (Ipomoea spp.), pigweed (Amaranthus retroflexus), velvetleaf (Abutilon theophrasti), ryegrass, Italian (Italian ryegrass, Lolium multiflorum), wheat (Triticum aestivum), and corn (Zea mays) were planted into a blend of loam soil and sand and treated preemergence with a directed soil spray using test chemicals formulated in a non-phytotoxic solvent mixture which included a surfactant.
At the same time, plants selected from these crop and weed species and also blackgrass (Alopecurus myosuroides), and galium (catchweed bedstraw, Galium aparine), were planted in pots containing the same blend of loam soil and sand and treated with postemergence applications of test chemicals formulated in the same manner. Plants ranged in height from 2 to 10 cm and were in the one- to two-leaf stage for the postemergence treatment. Treated plants and untreated controls were maintained in a greenhouse for approximately 10 d, after which time all treated plants were compared to untreated controls and visually evaluated for injury. Plant response ratings, summarized in Table A, are based on a 0 to 100 scale where 0 is no effect and 100 is complete control. A dash (-) response means no test result.

ryegrass, Ital. = assay: Test D postemergence; assay type: in vivo, Lolium multiflorum; conditions: scale 0 to 100
From the text: Seeds of plant species selected from bluegrass (annual bluegrass, Poa annua), blackgrass (Alopecurus myosuroides), canarygrass (Phalaris minor), chickweed (common chickweed, Stellaria media), galium (catchweed bedstraw, Galium aparine), bromegrass, down (downy bromegrass, Bromus tectorum), Russian thistle (Salsola kali), field poppy (Papaver rhoeas), field violet (Viola arvensis), foxtail, green (green foxtail, Setaria viridis), deadnettle (henbit deadnettle, Lamium amplexicaule), ryegrass, Ital. (Italian ryegrass, Lolium multiflorum), kochia (Kochia scoparia), lambsquarters (Chenopodium album), oilseed rape (Brassica napus), pigweed (Amaranthus retroflexus), chamomile (scentless chamomile, Matricaria inodora), speedwell (bird's-eye speedwell, Veronica persica), barley, spring (spring barley, Hordeum vulgare), wheat, spring (spring wheat, Triticum aestivum), buckwheat, wild (wild buckwheat, Polygonum convolvulus), wild mustard (Sinapis arvensis), oat, wild (wild oat, Avena fatua), radish, wild (wild radish, Raphanus raphanistrum), […]), barley, winter (winter barley, Hordeum vulgare), and wheat, winter (winter wheat, Triticum aestivum) were planted into a silt loam soil and treated preemergence with test chemicals formulated in a non-phytotoxic solvent mixture which included a surfactant. At the same time, these species were planted in pots containing Sunshine Redi-Earth® planting medium comprising spaghnum peat moss, vermiculite, starter nutrients and dolomitic limestone and treated with postemergence applications of the test chemicals formulated in the same manner. Plants ranged in height from 2 to 18 cm (1- to 4-leaf stage). Treated plants and controls were maintained in a controlled growth environment for 14 to 21 d after which time all species were compared to controls and visually evaluated. […] A dash (-) response means no test result.

morningglory = assay: Test A preemergence; assay type: in vivo, Ipomoea spp.; conditions: Ipomoea, pre-emergence, 240 h, 0 to 100 scale (0 no effect, 100 complete control), read-out: Plant response rating, Morningglory; for pest or weed control at 125 g/ha: 125 g ai/ha; for pest or weed control at 500 g/ha: 500 g ai/ha, approx. 10 d
Procedure, shortened: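 Loam/sand soil mix; compound in non-phytotoxic solvent + surfactant. Pre: directed soil spray right after planting seed. Post: potted plants 2–10 cm, 1–2 leaf stage, sprayed with same formulation.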

panicum, fall = assay: Test E preemergence; assay type: in vivo, Panicum dichotomiflorum; conditions: scale 0 to 100
From the text: (§1) Seeds of plant species selected from corn (Zea mays), soybean (Glycine max), lambsquarters (Chenopodium album), poinsettia, wild (wild poinsettia, Euphorbia heterophylla), pigweed, palmer (palmer pigweed, Amaranthus palmeri), waterhemp (common waterhemp, Amaranthus rudis), surinam grass (Brachiaria decumbens), crabgrass, large (large crabgrass, Digitaria sanguinalis), crabgrass, Brazilian (Brazilian crabgrass, Digitaria horizontalis), panicum, fall (fall panicum, Panicum dichotomiflorum), foxtail, giant (giant foxtail, Setaria faberii), foxtail, green (green foxtail, Setaria viridis), goosegrass (Eleusine indica), johnsongrass (Sorghum halepense), ragweed (common ragweed, Ambrosia elatior), barnyardgrass (Echinochloa crus-galli), sandbur (southern sandbur, Cenchrus echinatus), arrowleaf sida (Sida rhombifolia), ryegrass, Italian (Italian ryegrass, Lolium multiflorum), dayflower, VA (Virginia dayflower, Commelina virginica), field bindweed (Convolvulus arvensis), cocklebur (common cocklebur, Xanthium strumarium), morningglory (Ipomoea coccinea), nightshade (eastern black nightshade, Solanum ptycanthum), kochia (Kochia scoparia), nutsedge, yellow (yellow nutsedge, Cyperus esculentus), smartweed (ladysthumb smartweed, Polygonum persicaria), velvetleaf (Abutilon theophrasti), horseweed (Conyza canadensis), and beggarticks (hairy beggarticks, Bidens pilosa), were planted into a silt loam soil and treated preemergence with test chemicals formulated in a non-phytotoxic solvent mixture which included a surfactant.
(§2) At the same time, plants from these crop and weed species and also waterhemp_RES1, (ALS & Triazine resistant common waterhemp, Amaranthus rudis), and waterhemp_RES2, (ALS & HPPD resistant common waterhemp, Amaranthus rudis) were planted in pots containing Sunshine Redi-Earth® planting medium comprising spaghnum peat moss, vermiculite, starter nutrients and dolomitic limestone were treated with postemergence applications of test chemicals formulated in the same manner. Plants ranged in height from 2 to 18 cm for postemergence treatments (1- to 4-leaf stage). Treated plants and controls were maintained in a greenhouse for 14 to 21 d, after which time all species were compared to controls and visually evaluated. Plant response ratings, summarized in Table E, are based on a scale of 0 to 100 where 0 is no effect and 100 is complete control. A dash (-) response means no test result.

kochia [2] = assay: Test E preemergence; assay type: in vivo, Kochia scoparia; conditions: scale 0 to 100
From the text: as §1, §2

beggarticks = assay: Test E preemergence; assay type: in vivo, Bidens pilosa; conditions: scale 0 to 100
From the text: as §1, §2

## CCOc1nc(-c2ccc(C(F)(F)F)cc2)nn1Cc1ccnc(C(F)(F)F)c1 [Compound 35, 4-[[5-ethoxy-3-[4-(trifluoromethyl)phenyl]-1H-1,2,4-triazole-1-yl]methyl]-2-(trifluoromethyl)pyridine]
Kochia [1]; 31 g ai/ha
  Plant response rating, Kochia: 90
Kochia [1]; 125 g ai/ha
  Plant response rating, Kochia: 90
ryegrass, Ital.; 16 g ai/ha
  Plant response rating: Ryegrass, Ital.: 30
ryegrass, Ital.; 31 g ai/ha
  Plant response rating: Ryegrass, Ital.: 60
ryegrass, Ital.; 62 g ai/ha
  Plant response rating: Ryegrass, Ital.: 65
ryegrass, Ital.; 125 g ai/ha
  Plant response rating: Ryegrass, Ital.: 75

## COc1nc(-c2ccc(C(F)(F)F)cc2)nn1Cc1ccnc(C(F)(F)F)c1 [Compound 25]
Kochia [1]; 31 g ai/ha
  Plant response rating, Kochia: 20
Kochia [1]; 125 g ai/ha
  Plant response rating, Kochia: 80

## COc1nc(-c2ccccc2)nn1Cc1ccnc(C(F)(F)F)c1 [Compound 32]
Kochia [1]; 125 g ai/ha
  Plant response rating, Kochia: 100
Kochia [1]; 500 g ai/ha, approx. 10 d
  Plant response rating, Kochia: 100

## CS(=O)(=O)c1nc(-c2ccc(F)cc2)nn1Cc1ccnc(C(F)(F)F)c1 [Compound 29, 4-[[3-(4-fluorophenyl)-5-(methylsulfonyl)-1H-1,2,4-triazole-1-yl]methyl]-2-(trifluoromethyl)pyridine]
morningglory
  pest or weed control at 125 g/ha: 0%
  pest or weed control at 500 g/ha: 0%

## CCc1nc(-c2ccc(C(F)(F)F)cc2)nn1Cc1ccnc(C(F)(F)F)c1 [Compound 1, 4-[[5-ethyl-3-[4-(trifluoromethyl)phenyl]-1H-1,2,4-triazol-1-yl]methyl]-2-(trifluoromethyl)pyridine]
morningglory
  pest or weed control at 125 g/ha: 30%
  pest or weed control at 500 g/ha: 80%
ryegrass, Ital.; 31 g ai/ha
  Plant response rating: Ryegrass, Ital.: 10
ryegrass, Ital.; 62 g ai/ha
  Plant response rating: Ryegrass, Ital.: 15
ryegrass, Ital.; 125 g ai/ha
  Plant response rating: Ryegrass, Ital.: 20
ryegrass, Ital.; 250 g ai/ha
  Plant response rating: Ryegrass, Ital.: 35
panicum, fall; 16 g ai/ha
  Plant response rating: 15
panicum, fall; 31 g ai/ha
  Plant response rating: 60
panicum, fall; 62 g ai/ha
  Plant response rating: 80
panicum, fall; 125 g ai/ha
  Plant response rating: 100
panicum, fall; 250 g ai/ha
  Plant response rating: 100
Kochia [2]; 16 g ai/ha
  Plant response rating: 20
Kochia [2]; 31 g ai/ha
  Plant response rating: 60
Kochia [2]; 62 g ai/ha
  Plant response rating: 80
Kochia [2]; 125 g ai/ha
  Plant response rating: 90
Kochia [2]; 250 g ai/ha
  Plant response rating: 95
beggarticks; 16 g ai/ha
  Plant response rating: 0
beggarticks; 31 g ai/ha
  Plant response rating: 0
beggarticks; 62 g ai/ha
  Plant response rating: 0
beggarticks; 125 g ai/ha
  Plant response rating: 20
beggarticks; 250 g ai/ha
  Plant response rating: 60

## Cn1nc(-c2ccc(F)cc2)nc1Oc1cccc(C(F)(F)F)c1 [Compound 5, 3-(4-fluorophenyl)-1-methyl-5-[3-(trifluoromethyl)phenoxy]-1H-1,2,4-triazole]
morningglory
  pest or weed control at 125 g/ha: 0%
  pest or weed control at 500 g/ha: 0%

## CCn1nc(-c2ccc(F)cc2)nc1C(=O)c1ccnc(C(F)(F)F)c1 [Compound 19, [1-ethyl-3-(4-fluorophenyl)-1H-1,2,4-triazol-5-yl][2-(trifluoromethyl)-4-pyridinyl]methanone]
morningglory
  pest or weed control at 125 g/ha: 0%
  pest or weed control at 500 g/ha: 0%

## FC(F)(F)COc1nc(-c2ccc(Cl)cc2)nn1Cc1ccnc(C(F)(F)F)c1 [Compound 31]
Kochia [1]; 125 g ai/ha
  Plant response rating, Kochia: 90
Kochia [1]; 500 g ai/ha, approx. 10 d
  Plant response rating, Kochia: 90
ryegrass, Ital.; 16 g ai/ha
  Plant response rating: Ryegrass, Ital.: 25
ryegrass, Ital.; 31 g ai/ha
  Plant response rating: Ryegrass, Ital.: 30
ryegrass, Ital.; 62 g ai/ha
  Plant response rating: Ryegrass, Ital.: 55
ryegrass, Ital.; 125 g ai/ha
  Plant response rating: Ryegrass, Ital.: 65

## CCCn1nc(-c2ccc(F)cc2)nc1Cc1ccnc(C(F)(F)F)c1 [Compound 17, 4-[[3-(4-fluorophenyl)-1-propyl-1H-1,2,4-triazol-5-yl]methyl]-2-(trifluoromethyl)pyridine]
morningglory
  pest or weed control at 125 g/ha: 70%
  pest or weed control at 500 g/ha: 90%

## CCn1nc(-c2ccc(F)cc2)nc1C(O)c1ccnc(C(F)(F)F)c1 (stereo not drawn) [Compound 15, α-[1-Ethyl-3-(4-fluorophenyl)-1H-1,2,4-triazol-5-yl]-2-(trifluoromethyl)-4-pyridinemethanol]
morningglory
  pest or weed control at 125 g/ha: 0%
  pest or weed control at 500 g/ha: 0%

## COc1nc(-c2ccc(F)cc2)nn1Cc1ccnc(C(F)(F)F)c1 [Compound 9, 4-[[3-(4-fluorophenyl)-5-methoxy-1H-1,2,4-triazol-1-yl]methyl]-2-(trifluoromethyl)pyridine]
morningglory
  pest or weed control at 125 g/ha: 10%
  pest or weed control at 500 g/ha: 90%

## CCCOc1nc(-c2ccccc2)nn1Cc1ccnc(C(F)(F)F)c1 [Compound 33]
Kochia [1]; 125 g ai/ha
  Plant response rating, Kochia: 60
Kochia [1]; 500 g ai/ha, approx. 10 d
  Plant response rating, Kochia: 90

## Cn1nc(-c2ccc(F)cc2)nc1C(O)c1ccnc(C(F)(F)F)c1 (stereo not drawn) [Compound 14, α-[3-(4-fluorophenyl)-1-methyl-1H-1,2,4-triazol-5-yl]-2-(trifluoromethyl)-4-pyridinemethanol]
morningglory
  pest or weed control at 125 g/ha: 0%
  pest or weed control at 500 g/ha: 0%

## FC(F)(F)COc1nc(-c2ccccc2)nn1Cc1ccnc(C(F)(F)F)c1 [Compound 24]
Kochia [1]; 125 g ai/ha
  Plant response rating, Kochia: 80
Kochia [1]; 500 g ai/ha, approx. 10 d
  Plant response rating, Kochia: 90
ryegrass, Ital.; 16 g ai/ha
  Plant response rating: Ryegrass, Ital.: 15
ryegrass, Ital.; 31 g ai/ha
  Plant response rating: Ryegrass, Ital.: 25
ryegrass, Ital.; 62 g ai/ha
  Plant response rating: Ryegrass, Ital.: 30
ryegrass, Ital.; 125 g ai/ha
  Plant response rating: Ryegrass, Ital.: 40

## CCOc1nc(-c2ccc(Cl)cc2)nn1Cc1ccnc(C(F)(F)F)c1 [Compound 26]
Kochia [1]; 31 g ai/ha
  Plant response rating, Kochia: 60
Kochia [1]; 125 g ai/ha
  Plant response rating, Kochia: 90

## CCCc1nc(-c2ccc(F)cc2)nn1Cc1ccnc(C(F)(F)F)c1 [Compound 6, 4-[[3-(4-fluorophenyl)-5-propyl-1H-1,2,4-triazol-1-yl]methyl]-2-(trifluoromethyl)pyridine]
morningglory
  pest or weed control at 125 g/ha: 50%
  pest or weed control at 500 g/ha: 100%
panicum, fall; 31 g ai/ha
  Plant response rating: 20
panicum, fall; 62 g ai/ha
  Plant response rating: 35
panicum, fall; 125 g ai/ha
  Plant response rating: 95
panicum, fall; 250 g ai/ha
  Plant response rating: 100
Kochia [2]; 16 g ai/ha
  Plant response rating: 60
Kochia [2]; 31 g ai/ha
  Plant response rating: 80
Kochia [2]; 62 g ai/ha
  Plant response rating: 80
Kochia [2]; 125 g ai/ha
  Plant response rating: 85
Kochia [2]; 250 g ai/ha
  Plant response rating: 100
beggarticks; 16 g ai/ha
  Plant response rating: 0
beggarticks; 31 g ai/ha
  Plant response rating: 0
beggarticks; 62 g ai/ha
  Plant response rating: 0
beggarticks; 125 g ai/ha
  Plant response rating: 20
beggarticks; 250 g ai/ha
  Plant response rating: 70

— patent publication US10681909B2, “Herbicidal triazoles” (FMC Corporation, priority 2014, dated 2020)
